Source: PMC6270420, “Antibacterial Activity of Salicylanilide 4-(Trifluoromethyl)benzoates” (Molecules, 2013)
≈ marks a conversion by molar mass, not a printed value. Like-named read-outs stand apart in the source and are kept apart here.

Key:
[1] = system: Mycobacterium kansasii 235/80; experiment: Antimycobacterial MIC micromethod; assay type: cell-based; details: read-out: MIC M. kansasii 235/80
[2] = system: Mycobacterium avium 330/88; experiment: Antimycobacterial MIC micromethod; assay type: cell-based
[3] = system: Mycobacterium tuberculosis 331/88 (H37Rv); experiment: Antimycobacterial MIC micromethod, Šula's medium; assay type: cell-based
[4] = system: M. kansasii 6509/96 (clinically isolated strain); experiment: Antimycobacterial MIC micromethod; assay type: cell-based; details: Mycobacterium kansasii, read-out: MIC M. kansasii 6509/96
[5] = molecular target: T1, mycobacterial isocitrate lyase (ICL1, Rv0467) (Mycobacterium tuberculosis, UniProt P9WKK7); experiment: Isocitrate lyase inhibition assay (ICL1); assay type: biochemical, Mycobacterium tuberculosis H37Rv; details: 10 μmol/L; read-out: % ICL inhibition at 10 μmol/L (± standard deviation)
T1 construct: His tag (from pET-28b(+)); made in house; host or cells: E. coli BL21(DE3), pET-28b(+) plasmid
T1 sequence (P9WKK7 1-428): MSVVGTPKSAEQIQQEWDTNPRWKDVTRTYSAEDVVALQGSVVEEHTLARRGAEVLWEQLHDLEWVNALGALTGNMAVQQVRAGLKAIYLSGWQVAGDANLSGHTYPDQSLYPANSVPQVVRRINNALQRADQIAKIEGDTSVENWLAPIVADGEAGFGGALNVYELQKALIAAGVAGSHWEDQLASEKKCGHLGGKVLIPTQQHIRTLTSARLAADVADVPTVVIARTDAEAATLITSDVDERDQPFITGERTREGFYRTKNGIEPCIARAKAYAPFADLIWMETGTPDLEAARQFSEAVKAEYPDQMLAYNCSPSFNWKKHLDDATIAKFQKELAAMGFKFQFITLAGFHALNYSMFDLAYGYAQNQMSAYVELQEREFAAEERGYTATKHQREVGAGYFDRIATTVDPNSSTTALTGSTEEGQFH

[6] = system: Staphylococcus epidermidis H 6966/08; experiment: Antibacterial microdilution broth method; assay type: cell-based; details: read-out: MIC/IC90 S. epidermidis H 6966/08
Protocol: (§1) The in vitro antibacterial activity was assayed against eight Gram-positive and Gram-negative strains: Staphylococcus aureus CCM 4516/08, methicillin-resistant Staphylococcus aureus H 5996/08 (MRSA), Staphylococcus epidermidis H 6966/08, Enterococcus sp. J 14365/08; Escherichia coli CCM 4517, Klebsiella pneumoniae D 11750/08, ESBL-positive Klebsiella pneumoniae J 14368/08, and Pseudomonas aeruginosa CCM 1961.
(§2) The microdilution broth method modified according to standard M07-A07 in Mueller-Hinton broth (HiMedia Laboratories, Mumbai, India) adjusted to pH 7.4 (±0.2) was used. The tested compounds were dissolved in DMSO to the final concentrations ranging from […]. Benzylpenicillin (penicillin G) was used as a comparative drug. Bacterial inoculum in sterile water was prepared to match 0.5 McFarland scale ([…]). The minimum inhibitory concentrations were assayed as 90% (IC90) or higher reduction of growth when compared to the control. The determination of results was performed visually and spectrophotometrically (at 540 nm). The values of MICs were determined after 24 and 48 h of incubation in the darkness at 35 °C (±0.1) in a humid atmosphere.

[7] = system: Escherichia coli CCM 4517; experiment: Antibacterial microdilution broth method; assay type: cell-based; details: read-out: MIC/IC90 E. coli CCM 4517
Protocol: as §1, §2

[8] = system: methicillin-resistant Staphylococcus aureus H 5996/08 (MRSA); experiment: Antibacterial microdilution broth method; assay type: cell-based; details: read-out: MIC/IC90 MRSA H 5996/08
Protocol: as §1, §2

[9] = system: Enterococcus sp. J 14365/08; experiment: Antibacterial microdilution broth method; assay type: cell-based; details: read-out: MIC/IC90 Enterococcus sp. J 14365/08
Protocol: as §1, §2

[10] = system: Staphylococcus aureus CCM 4516/08; experiment: Antibacterial microdilution broth method; assay type: cell-based; details: read-out: MIC/IC90 S. aureus CCM 4516/08
Protocol: as §1, §2

[11] = 336 h, 14 d, read-out: MIC Mtb. 331/88
[12] = 504 h, 21 d, read-out: MIC Mtb. 331/88

Compound | MIC ([1]; 235/80, 168 h, 7 d) [µM] | MIC ([1]; 235/80, 336 h, 14 d) [µM] | MIC ([1]; 235/80, 504 h, 21 d) [µM] | MIC ([2]; 330/88, 336 h, 14 d) [µM] | MIC ([2]; 330/88, 504 h, 21 d) [µM] | MIC [3, 11] [µM] | MIC [3, 12] [µM] | MIC ([4]; 168 h, 7 d) [µM] | MIC ([4]; 336 h, 14 d) [µM] | MIC ([4]; 504 h, 21 d) [µM] | inhibition at 10 µM [5] [%] | MIC ([1]; 235/80, 168 h) [µM] | MIC ([1]; 235/80, 336 h) [µM] | MIC ([1]; 235/80, 504 h) [µM] | MIC ([4]; 168 h) [µM] | MIC ([4]; 336 h) [µM] | MIC ([4]; 504 h) [µM] | further results
O=C(Oc1cc(Cl)ccc1C(=O)Nc1ccc(F)cc1)c1ccc(C(F)(F)F)cc1 [1n] | 2 (≈ 0.876 µg/mL) | 8 (≈ 3.5 µg/mL) | 8 (≈ 3.5 µg/mL) | 4 (≈ 1.75 µg/mL) | 4 (≈ 1.75 µg/mL) | 4 (≈ 1.75 µg/mL) | 8 (≈ 3.5 µg/mL) | 4 (≈ 1.75 µg/mL) | 8 (≈ 3.5 µg/mL) | 8 (≈ 3.5 µg/mL) | 17 ± 1.3 | – | – | – | – | – | – | –
O=C(Oc1ccc(Cl)cc1C(=O)Nc1cccc(C(F)(F)F)c1)c1ccc(C(F)(F)F)cc1 [1q] | 2 (≈ 0.976 µg/mL) | 4 (≈ 1.95 µg/mL) | 8 (≈ 3.9 µg/mL) | 4 (≈ 1.95 µg/mL) | 16 (≈ 7.8 µg/mL) | 2 (≈ 0.976 µg/mL) | 2 (≈ 0.976 µg/mL) | 1 (≈ 0.488 µg/mL) | 4 (≈ 1.95 µg/mL) | 8 (≈ 3.9 µg/mL) | 19 ± 0.5 | – | – | – | – | – | – | –
O=C(O)CC[N+](=O)[O-] [3-NP, 3-nitropropionic acid, reference compound] | – | – | – | – | – | – | – | – | – | – | 25 ± 4.1 | – | – | – | – | – | – | –
NNC(=O)c1ccncc1 [INH, isoniazid, reference compound] | – | – | – | ≥ 250 | ≥ 250 | 0.5 to 1 (≈ 0.0686 to 0.137 µg/mL) | 0.5 to 1 (≈ 0.0686 to 0.137 µg/mL) | – | – | – | 0 | > 250 | > 250 | > 250 | 2 to 4 (≈ 0.274 to 0.549 µg/mL) | 4 to 8 (≈ 0.549 to 1.1 µg/mL) | 8 to 16 (≈ 1.1 to 2.19 µg/mL) | MIC ([3]; time not stated, read-out: MIC against M. tuberculosis): 1 µM (≈ 0.137 µg/mL)
Nc1ccc(C(=O)O)c(O)c1 [PAS, p-aminosalicylic acid, reference compound] | – | – | – | 32 (≈ 4.9 µg/mL) | 125 (≈ 19.1 µg/mL) | 62.5 (≈ 9.57 µg/mL) | 62.5 (≈ 9.57 µg/mL) | – | – | – | – | 125 (≈ 19.1 µg/mL) | 1000 (≈ 153 µg/mL) | > 1000 | 32 (≈ 4.9 µg/mL) | 125 (≈ 19.1 µg/mL) | 500 (≈ 76.6 µg/mL) | –
CC1(C)S[C@@H]2[C@H](NC(=O)Cc3ccccc3)C(=O)N2[C@H]1C(=O)O [PNC, benzylpenicillin, reference compound] | – | – | – | – | – | – | – | – | – | – | – | – | – | – | – | – | – | MIC ([6]; H6966/08, 24 h): 250 µM (≈ 83.6 µg/mL); MIC ([6]; H6966/08, 48 h): 250 µM (≈ 83.6 µg/mL); MIC ([7]; CCM4517, 24 h): > 500 µM; MIC ([7]; CCM4517, 48 h): > 500 µM; MIC ([8]; 24 h): 62.5 µM (≈ 20.9 µg/mL); MIC ([8]; 48 h): 125 µM (≈ 41.8 µg/mL); MIC ([9]; SP.J14365/08, 24 h): 7.81 µM (≈ 2.61 µg/mL); MIC ([9]; SP.J14365/08, 48 h): 15.6 µM (≈ 5.22 µg/mL); MIC ([10]; CCM4516, 24 h): 0.98 µM (≈ 0.328 µg/mL); MIC ([10]; CCM4516, 48 h): 0.98 µM (≈ 0.328 µg/mL)
